According to patent US20240123012A1 (priority 2021, published 2024):

Molecular target: human recombinant DHODH (rhDHODH) (Homo sapiens, UniProt Q02127)
Test: Inhibition of the activity of rh DHODH on its colorimetric substrate (OD at 600 nm)
Assay type: biochemical
Procedure: This mother tincture constitutes the sample to be tested. The measurement of the inhibition of the action of DHODH on its substrate is carried out in a conventional multi-well plate with a transparent wall. The wells contain the samples to be tested, the DHODH and its substrate.
To evaluate the inhibition of the DHODH by the sample, the parameter of the optical density called “OD” is used. Indeed, in each well, the “OD” is measured at a wavelength of 600 nm, at several time intervals, for a duration of 5 min.
More specifically, each well comprises the diluted or non-diluted sample, the enzyme of the DHODH and its colorimetric substrate diluted in a test buffer. Said colorimetric substrate comprises DHO which can be converted into ORO by action of the DHODH.
Over time, the consumption of the colorimetric substrate DHO by the enzyme DHODH results in a reduction in the OD. This decrease indicates the conversion of the colored DHO into uncolored ORO by the activity of the DHODH. In other words, the DHO is consumed, […] to ORO by the activity of the DHODH, which causes a modification of the OD measured.
In the event of inhibition of the activity of the DHODH by the sample, the OD remains stable over time. Indeed, in the case of inhibition, the colorimetric DHO substrate will not be transformed by the DHODH into ORO, the OD therefore will remain that of the initial DHO.
To carry out the experiments, the following were used: • a solution of class 1 enzyme called “rhDHODH” for “human recombinant DHODH”, • a test buffer consisting of 50 mM Tris, 150 mM KCl and 0.1% Triton® X-100, at pH 8, • a substrate mixture of DHODH containing: 2 mM of L-dihydroorotic called “DHO”, 0.2 mM of decylubiquinone called “Q” and 0.12 mM of 2,6-Dichloroindophenol sodium salt hydrate called “DP IP” in the test buffer, • a mother tincture sample of a leaf extract of a Neurolaena lobata plant, diluted or not, in a dilution buffer consisting of dimethyl sulfoxide called “DMSO”.
To start the protocol, each dilution of the sample H1 or H2 was placed in the presence of the rh DHODH enzyme and the mixture of substrate within a well. In order to obtain an average of OD measured for a sample concentration H1 or H2, triplicates were carried out for each of the dilution concentrations of H1 and H2.
The amount of enzyme added in each well is the same. In the protocol, the enzyme is added to the well so as to have a concentration of 0.06 μg of rh DHODH enzyme/mL of total solution in the well.
% of activity=(ΔH1×100)/Δ of the negative control.
The % of inhibition is calculated by the following formula: 100—the value of the % of activity.

Chain of human recombinant DHODH (rhDHODH) (Q02127 whole entry): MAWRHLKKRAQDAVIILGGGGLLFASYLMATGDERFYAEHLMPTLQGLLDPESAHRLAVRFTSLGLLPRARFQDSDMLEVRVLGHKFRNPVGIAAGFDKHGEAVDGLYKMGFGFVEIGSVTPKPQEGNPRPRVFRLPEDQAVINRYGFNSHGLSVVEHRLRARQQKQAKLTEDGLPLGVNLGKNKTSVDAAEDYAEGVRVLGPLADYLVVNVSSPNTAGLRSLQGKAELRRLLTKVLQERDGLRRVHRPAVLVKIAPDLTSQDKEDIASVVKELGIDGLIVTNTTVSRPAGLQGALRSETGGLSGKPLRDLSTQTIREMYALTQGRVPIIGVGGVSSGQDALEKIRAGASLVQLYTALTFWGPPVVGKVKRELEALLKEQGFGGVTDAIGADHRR

## Cc1c(-c2ccc(-c3ccccc3F)cc2)nc2ccc(F)cc2c1C(=O)O [brequinar]
  activity at 0.001 µg/mL: 6.25%
  activity at 0.01 µg/mL: 7.21%
  activity at 0.1 µg/mL: 0%
  activity at 1 µg/mL: 0%
0.001 μg/mL
  Δ (OD at 0 s minus OD at 275 s): 0.013
0.001 μg/mL, 0-275 s
  inhibition at 0.001 µg/mL: 93.8%
0.001 μg/mL, 0 s
  OD at 600 nm: 0.339
0.001 μg/mL, 55 s
  OD at 600 nm: 0.340
0.001 μg/mL, 110 s
  OD at 600 nm: 0.333
0.001 μg/mL, 165 s
  OD at 600 nm: 0.331
0.001 μg/mL, 220 s
  OD at 600 nm: 0.328
0.001 μg/mL, 275 s
  OD at 600 nm: 0.326
0.01 μg/mL
  Δ (OD at 0 s minus OD at 275 s): 0.015
0.01 μg/mL, 0-275 s
  inhibition at 0.01 µg/mL: 92.8%
0.01 μg/mL, 0 s
  OD at 600 nm: 0.344
0.01 μg/mL, 55 s
  OD at 600 nm: 0.345
0.01 μg/mL, 110 s
  OD at 600 nm: 0.339
0.01 μg/mL, 165 s
  OD at 600 nm: 0.336
0.01 μg/mL, 220 s
  OD at 600 nm: 0.348
0.01 μg/mL, 275 s
  OD at 600 nm: 0.329
0.1 μg/mL
  Δ (OD at 0 s minus OD at 275 s): 0.000
0.1 μg/mL, 0-275 s
  inhibition at 0.1 µg/mL: 100%
0.1 μg/mL, 0 s
  OD at 600 nm: 0.349
0.1 μg/mL, 55 s
  OD at 600 nm: 0.348
0.1 μg/mL, 110 s
  OD at 600 nm: 0.353
0.1 μg/mL, 165 s
  OD at 600 nm: 0.345
0.1 μg/mL, 220 s
  OD at 600 nm: 0.350
0.1 μg/mL, 275 s
  OD at 600 nm: 0.349
1 μg/mL
  Δ (OD at 0 s minus OD at 275 s): 0.001
1 μg/mL, 0-275 s
  inhibition at 1 µg/mL: 100%
1 μg/mL, 0 s
  OD at 600 nm: 0.354
1 μg/mL, 55 s
  OD at 600 nm: 0.354
1 μg/mL, 110 s
  OD at 600 nm: 0.352
1 μg/mL, 165 s
  OD at 600 nm: 0.361
1 μg/mL, 220 s
  OD at 600 nm: 0.357
1 μg/mL, 275 s
  OD at 600 nm: 0.353
